Reference: ChEMBL document CHEMBL1201862, “PubChem BioAssay data set” (2004)
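Growth conditions: 96-well plates. Treatment: test compound, 48 hours, 5 concentrations. Analysis: linear interpolation between bracketing concentrations; unreached endpoints set to highest concentration. GI50: concentration for 50% inhibition of growth.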 Activity calls are given as the source filed them. No stated cut-off is given here; in the data, active = GI50 up to about 1.1 µM and inactive = higher.

How the values were obtained:
Assay in all cases: NCI tumour cell line growth inhibition, 48 h
NCI-H226 = system: NCI-H226
NCI-H23 = system: NCI-H23
UACC-62 = system: UACC-62
UO-31 = system: UO-31
BT-549 = system: BT-549
SK-MEL-2 = system: SK-MEL-2
SF-295 = system: SF-295
HOP-62 = system: HOP-62
TK-10 = system: TK-10
HCT-116 = system: HCT-116
SK-MEL-28 = system: SK-MEL-28
ACHN = system: ACHN
Hs-578T = system: Hs-578T
OVCAR-3 = system: OVCAR-3
NCI/ADR-RES = system: NCI/ADR-RES
Malme-3M = system: Malme-3M
MOLT-4 = system: MOLT-4
K562 = system: K562
OVCAR-4 = system: OVCAR-4
786-0 = system: 786-0
HCT-15 = system: HCT-15
SK-OV-3 = system: SK-OV-3
T47D = system: T47D
SNB-19 = system: SNB-19
U-251 = system: U-251
SF-539 = system: SF-539
SR = system: SR
OVCAR-5 = system: OVCAR-5
LOX IMVI = system: LOX IMVI
HOP-92 = system: HOP-92
CAKI-1 = system: CAKI-1
A549 = system: A549
NCI-H460 = system: NCI-H460
CCRF-CEM = system: CCRF-CEM
SNB-75 = system: SNB-75
OVCAR-8 = system: OVCAR-8
NCI-H522 = system: NCI-H522
SF-268 = system: SF-268
IGROV-1 = system: IGROV-1
MDA-MB-435 = system: MDA-MB-435
SK-MEL-5 = system: SK-MEL-5
UACC-257 = system: UACC-257
EKVX = system: EKVX
RXF 393 = system: RXF 393
RPMI-8226 = system: RPMI-8226
COLO 205 = system: COLO 205
MCF7 = system: MCF7
M14 = system: M14
DU-145 = system: DU-145
KM12 = system: KM12
PC-3 = system: PC-3
HT-29 = system: HT-29
SN12C = system: SN12C
SW-620 = system: SW-620
A498 = system: A498
HL-60 = system: HL-60
MDA-MB-231 = system: MDA-MB-231
MDA-N = system: MDA-N
HCC 2998 = system: HCC 2998

Measured: GI50

OC1C=C2C3CN(Cc4cc5c(cc43)OCO5)[C@H]2C[C@@H]1O (stereo partly specified)
4.33 µM: HCT-15
inactive: NCI-H226 > 100 µM | NCI-H23 5.96 µM | UACC-62 10.6 µM | UO-31 6.3 µM | BT-549 2.13 µM | SK-MEL-2 3.2 µM | SF-295 7.38 µM | HOP-62 6.84 µM | TK-10 4.13 µM | HCT-116 3.3 µM | SK-MEL-28 11.5 µM | ACHN 2.65 µM | Hs-578T 26.3 µM | OVCAR-3 7.13 µM | NCI/ADR-RES 15.7 µM | Malme-3M 7.23 µM | MOLT-4 4.29 µM | K562 4.31 µM | OVCAR-4 3.07 µM | 786-0 4.12 µM | SK-OV-3 3.82 µM | T47D 1.16 µM | SNB-19 4.62 µM | U-251 4.86 µM | SF-539 16.9 µM | SR 2.94 µM | OVCAR-5 8.39 µM | LOX IMVI 4.06 µM | HOP-92 5.31 µM | CAKI-1 3.44 µM | A549 3.74 µM | NCI-H460 2.28 µM | CCRF-CEM 2.34 µM | OVCAR-8 5.04 µM | NCI-H522 7.28 µM | SF-268 7.28 µM | IGROV-1 4.02 µM | MDA-MB-435 3.94 µM | SK-MEL-5 3.32 µM | UACC-257 2.07 µM | EKVX 4.36 µM | RXF 393 2.54 µM | RPMI-8226 6.93 µM | COLO 205 3.78 µM | MCF7 2.96 µM | M14 4.22 µM | DU-145 2.64 µM | KM12 3.86 µM | PC-3 2.19 µM | HT-29 3.69 µM | SN12C 5.12 µM | SW-620 5.57 µM | A498 6.87 µM | HL-60 2.61 µM | MDA-MB-231 18.1 µM | MDA-N 3.89 µM
active: SNB-75 0.794 µM

O=[N+]([O-])c1ccc(/C=N/CC2CCCN3CCCCC23)cc1 (stereo unspecified)
inactive: NCI-H23 > 100 µM | UACC-62 > 100 µM | UO-31 34.2 µM | BT-549 > 100 µM | SK-MEL-2 > 100 µM | SF-295 > 100 µM | HOP-62 > 100 µM | TK-10 > 100 µM | HCT-116 58.6 µM | SK-MEL-28 > 100 µM | ACHN > 100 µM | Hs-578T > 100 µM | NCI/ADR-RES > 100 µM | Malme-3M > 100 µM | MOLT-4 22.9 µM | K562 19.5 µM | OVCAR-4 > 100 µM | 786-0 22.8 µM | SK-OV-3 > 100 µM | T47D > 100 µM | SNB-19 > 100 µM | U-251 40.6 µM | SR 4.22 µM | OVCAR-5 > 100 µM | LOX IMVI 15.5 µM | HOP-92 > 100 µM | CAKI-1 > 100 µM | A549 36.2 µM | NCI-H460 > 100 µM | CCRF-CEM 40.8 µM | SNB-75 31.6 µM | OVCAR-8 43.2 µM | NCI-H522 > 100 µM | HCC 2998 28.6 µM | SF-268 > 100 µM | IGROV-1 > 100 µM | MDA-MB-435 61.7 µM | SK-MEL-5 > 100 µM | UACC-257 > 100 µM | EKVX > 100 µM | RXF 393 46 µM | RPMI-8226 17.3 µM | COLO 205 50.9 µM | MCF7 24 µM | M14 55 µM | DU-145 > 100 µM | KM12 33.2 µM | PC-3 > 100 µM | HT-29 16.9 µM | SN12C > 100 µM | SW-620 32.2 µM | A498 > 100 µM | HL-60 26.7 µM | MDA-MB-231 > 100 µM | MDA-N 34.9 µM
42.7 µM: HCT-15

COc1ccc(/C=N/c2ccc(-c3nc4ccccc4[nH]3)cc2)cc1OC
> 100 µM: HCT-15
inactive: NCI-H226 > 100 µM | NCI-H23 > 100 µM | UO-31 > 100 µM | BT-549 89.1 µM | SK-MEL-2 > 100 µM | SF-295 > 100 µM | HOP-62 > 100 µM | TK-10 > 100 µM | HCT-116 > 100 µM | SK-MEL-28 > 100 µM | ACHN > 100 µM | Hs-578T > 100 µM | OVCAR-3 > 100 µM | NCI/ADR-RES > 100 µM | Malme-3M > 100 µM | MOLT-4 > 100 µM | K562 > 100 µM | OVCAR-4 > 100 µM | 786-0 > 100 µM | SK-OV-3 > 100 µM | T47D > 100 µM | SNB-19 > 100 µM | U-251 42.5 µM | SF-539 > 100 µM | SR 81.7 µM | OVCAR-5 > 100 µM | LOX IMVI > 100 µM | HOP-92 47 µM | CAKI-1 > 100 µM | A549 > 100 µM | NCI-H460 > 100 µM | CCRF-CEM > 100 µM | SNB-75 22.3 µM | OVCAR-8 39.6 µM | NCI-H522 > 100 µM | SF-268 80 µM | IGROV-1 49.3 µM | MDA-MB-435 > 100 µM | SK-MEL-5 > 100 µM | UACC-257 > 100 µM | EKVX > 100 µM | RXF 393 97.9 µM | RPMI-8226 > 100 µM | COLO 205 > 100 µM | MCF7 25.9 µM | M14 > 100 µM | DU-145 > 100 µM | KM12 > 100 µM | PC-3 > 100 µM | HT-29 > 100 µM | SN12C > 100 µM | SW-620 > 100 µM | A498 > 100 µM | HL-60 63.7 µM | MDA-MB-231 68.4 µM | MDA-N > 100 µM

COc1cc2c(cc1OC)[C@@](C)(C(O)C(O)C(C)(C)O)NCC2 (stereo partly specified)
> 100 µM: HCT-15
inactive: NCI-H226 > 100 µM | NCI-H23 > 100 µM | UACC-62 > 100 µM | UO-31 > 100 µM | BT-549 > 100 µM | SK-MEL-2 > 100 µM | SF-295 > 100 µM | HOP-62 > 100 µM | TK-10 > 100 µM | HCT-116 > 100 µM | SK-MEL-28 > 100 µM | ACHN > 100 µM | Hs-578T > 100 µM | OVCAR-3 > 100 µM | NCI/ADR-RES > 100 µM | Malme-3M > 100 µM | MOLT-4 > 100 µM | K562 > 100 µM | OVCAR-4 > 100 µM | 786-0 > 100 µM | SK-OV-3 > 100 µM | T47D > 100 µM | SNB-19 > 100 µM | U-251 > 100 µM | SF-539 > 100 µM | SR > 100 µM | OVCAR-5 > 100 µM | LOX IMVI > 100 µM | HOP-92 > 100 µM | CAKI-1 > 100 µM | A549 > 100 µM | CCRF-CEM > 100 µM | SNB-75 > 100 µM | OVCAR-8 > 100 µM | NCI-H522 > 100 µM | SF-268 > 100 µM | IGROV-1 > 100 µM | MDA-MB-435 > 100 µM | SK-MEL-5 > 100 µM | UACC-257 > 100 µM | EKVX > 100 µM | RXF 393 > 100 µM | RPMI-8226 > 100 µM | COLO 205 > 100 µM | MCF7 > 100 µM | M14 > 100 µM | DU-145 > 100 µM | PC-3 > 100 µM | HT-29 > 100 µM | SN12C > 100 µM | A498 > 100 µM | HL-60 > 100 µM | MDA-MB-231 > 100 µM | MDA-N > 100 µM
